Measurements as given in ChEMBL document CHEMBL5576145, “Domoic Acid as a Lead for the Discovery of the First Selective Ligand for Kainate Receptor Subtype 5 (GluK5)” (J Med Chem, 2024).
Activity calls are given as the source filed them. The calls are words filed in the database; no cut-off is given here.

Columns and labels:
Hippocampus = experiment: Reduction in CA1 spike amplitude in Wistar rat hippocampal slices after 20 mins of toxin administration; type: functional, tissue-based
[1] = target: T1, Glutamate receptor ionotropic, kainate 2 (Homo sapiens, UniProt Q13002); experiment: Displacement of [3H]-kainic acid from GluR6 (unknown origin) expressed in Sf9 cells membrane; type: cell membranes, Cell membrane
T1 sequence (Q13002 whole entry): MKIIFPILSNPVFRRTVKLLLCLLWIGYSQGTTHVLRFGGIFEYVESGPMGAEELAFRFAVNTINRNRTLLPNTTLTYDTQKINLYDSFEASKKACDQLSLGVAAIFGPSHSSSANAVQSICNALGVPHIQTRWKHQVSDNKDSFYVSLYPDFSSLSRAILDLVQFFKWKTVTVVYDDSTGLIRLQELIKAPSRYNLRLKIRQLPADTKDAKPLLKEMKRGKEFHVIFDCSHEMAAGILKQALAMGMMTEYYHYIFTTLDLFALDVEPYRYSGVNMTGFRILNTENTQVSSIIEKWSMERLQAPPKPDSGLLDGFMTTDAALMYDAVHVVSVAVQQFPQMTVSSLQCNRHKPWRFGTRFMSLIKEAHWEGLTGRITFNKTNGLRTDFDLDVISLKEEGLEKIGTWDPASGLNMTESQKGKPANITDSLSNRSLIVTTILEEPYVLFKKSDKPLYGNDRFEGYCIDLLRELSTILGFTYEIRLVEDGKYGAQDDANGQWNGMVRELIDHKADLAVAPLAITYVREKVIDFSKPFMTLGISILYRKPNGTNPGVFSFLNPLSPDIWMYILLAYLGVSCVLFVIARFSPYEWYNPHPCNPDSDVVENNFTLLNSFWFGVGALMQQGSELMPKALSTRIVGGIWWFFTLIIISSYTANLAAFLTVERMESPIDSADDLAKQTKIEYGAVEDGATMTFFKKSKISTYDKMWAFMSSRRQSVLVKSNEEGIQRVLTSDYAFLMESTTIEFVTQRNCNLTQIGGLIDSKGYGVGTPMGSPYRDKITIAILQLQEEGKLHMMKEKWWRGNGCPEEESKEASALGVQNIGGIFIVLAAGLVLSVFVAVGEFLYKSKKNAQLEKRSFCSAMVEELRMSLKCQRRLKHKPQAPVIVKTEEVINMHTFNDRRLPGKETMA

Glutamate receptor 4 [2] = target: T2, Glutamate receptor 4 (Rattus norvegicus, UniProt P19493); experiment: Binding affinity to AMPA receptor in rat synaptosomes; type: subcellular, Synaptosome
T2 sequence (P19493 whole entry): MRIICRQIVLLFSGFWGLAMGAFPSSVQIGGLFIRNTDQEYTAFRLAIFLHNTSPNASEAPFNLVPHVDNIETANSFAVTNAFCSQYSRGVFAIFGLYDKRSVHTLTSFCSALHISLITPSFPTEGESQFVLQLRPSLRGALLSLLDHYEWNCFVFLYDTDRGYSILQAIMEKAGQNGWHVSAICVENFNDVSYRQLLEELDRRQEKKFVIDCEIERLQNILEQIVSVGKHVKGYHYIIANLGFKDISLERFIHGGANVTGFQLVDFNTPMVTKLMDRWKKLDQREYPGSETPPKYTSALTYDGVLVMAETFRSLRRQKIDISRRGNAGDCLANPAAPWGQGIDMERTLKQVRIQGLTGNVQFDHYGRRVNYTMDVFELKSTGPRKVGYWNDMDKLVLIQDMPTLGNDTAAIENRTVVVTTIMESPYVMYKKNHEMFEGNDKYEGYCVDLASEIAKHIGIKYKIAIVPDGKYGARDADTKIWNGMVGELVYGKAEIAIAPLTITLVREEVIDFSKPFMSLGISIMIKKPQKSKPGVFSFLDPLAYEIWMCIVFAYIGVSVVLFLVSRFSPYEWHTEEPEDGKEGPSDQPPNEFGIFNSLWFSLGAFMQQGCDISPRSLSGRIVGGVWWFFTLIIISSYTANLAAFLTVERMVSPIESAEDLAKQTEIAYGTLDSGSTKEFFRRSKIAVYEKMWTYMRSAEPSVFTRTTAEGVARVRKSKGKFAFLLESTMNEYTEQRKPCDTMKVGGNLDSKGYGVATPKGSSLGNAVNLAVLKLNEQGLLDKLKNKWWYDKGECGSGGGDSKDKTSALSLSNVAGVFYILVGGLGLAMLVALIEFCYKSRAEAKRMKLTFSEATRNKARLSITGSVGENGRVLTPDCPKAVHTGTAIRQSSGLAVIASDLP

Glutamate receptor 4 [3] = target: T2, Glutamate receptor 4; experiment: Displacement of [3H]-AMPA from AMPA in rat synaptic membrane; type: subcellular, Synaptosome
[4] = target: Glutamate receptor ionotropic, kainate 1 (Homo sapiens, UniProt P39086); experiment: Displacement of [3H](2S, 4R)-4-MeGlu (SYM-2081) from GluK1 (unknown origin)
Sequence of Glutamate receptor ionotropic, kainate 1 (P39086 whole entry): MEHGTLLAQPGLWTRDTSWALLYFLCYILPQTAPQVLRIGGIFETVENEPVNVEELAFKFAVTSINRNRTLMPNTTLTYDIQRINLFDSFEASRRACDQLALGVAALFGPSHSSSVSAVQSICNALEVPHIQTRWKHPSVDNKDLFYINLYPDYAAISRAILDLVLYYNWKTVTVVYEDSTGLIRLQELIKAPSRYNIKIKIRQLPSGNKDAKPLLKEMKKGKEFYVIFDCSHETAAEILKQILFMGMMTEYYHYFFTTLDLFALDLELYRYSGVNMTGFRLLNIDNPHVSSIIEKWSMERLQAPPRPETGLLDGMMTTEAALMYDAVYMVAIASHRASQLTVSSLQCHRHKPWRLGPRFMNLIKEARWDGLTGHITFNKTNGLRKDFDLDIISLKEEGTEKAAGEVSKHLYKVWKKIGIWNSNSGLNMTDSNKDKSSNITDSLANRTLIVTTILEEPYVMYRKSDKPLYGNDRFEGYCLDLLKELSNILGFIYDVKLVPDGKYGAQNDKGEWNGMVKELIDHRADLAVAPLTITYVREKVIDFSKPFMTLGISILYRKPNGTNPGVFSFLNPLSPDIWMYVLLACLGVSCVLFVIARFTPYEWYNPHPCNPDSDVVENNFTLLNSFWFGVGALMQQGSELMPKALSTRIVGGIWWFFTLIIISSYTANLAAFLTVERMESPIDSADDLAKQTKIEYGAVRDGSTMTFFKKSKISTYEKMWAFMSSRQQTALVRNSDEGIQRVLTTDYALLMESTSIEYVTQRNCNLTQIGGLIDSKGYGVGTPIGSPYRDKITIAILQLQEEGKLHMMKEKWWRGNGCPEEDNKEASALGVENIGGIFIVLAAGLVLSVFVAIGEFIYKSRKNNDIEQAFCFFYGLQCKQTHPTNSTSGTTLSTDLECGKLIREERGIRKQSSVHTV

[5] = Binding affinity to KA receptor in rat synaptosomes; type: subcellular, Synaptosome
[6] = Displacement of [3H]-Kainic acid from KA in rat synaptic membrane; type: subcellular, Synaptosome
[7] = target: T1, Glutamate receptor ionotropic, kainate 2; experiment: Displacement of [3H](2S, 4R)-4-MeGlu (SYM-2081) from GluK2 (unknown origin)
[8] = target: T3, Glutamate receptor ionotropic, kainate 5 (Mus musculus, UniProt Q61626); experiment: Displacement of [3H]-kainate from mouse GluK5 expressed in Sf9 cell membrane incubated for 2 hrs by scintillation counting method; type: cell membranes
T3 sequence (Q61626 whole entry): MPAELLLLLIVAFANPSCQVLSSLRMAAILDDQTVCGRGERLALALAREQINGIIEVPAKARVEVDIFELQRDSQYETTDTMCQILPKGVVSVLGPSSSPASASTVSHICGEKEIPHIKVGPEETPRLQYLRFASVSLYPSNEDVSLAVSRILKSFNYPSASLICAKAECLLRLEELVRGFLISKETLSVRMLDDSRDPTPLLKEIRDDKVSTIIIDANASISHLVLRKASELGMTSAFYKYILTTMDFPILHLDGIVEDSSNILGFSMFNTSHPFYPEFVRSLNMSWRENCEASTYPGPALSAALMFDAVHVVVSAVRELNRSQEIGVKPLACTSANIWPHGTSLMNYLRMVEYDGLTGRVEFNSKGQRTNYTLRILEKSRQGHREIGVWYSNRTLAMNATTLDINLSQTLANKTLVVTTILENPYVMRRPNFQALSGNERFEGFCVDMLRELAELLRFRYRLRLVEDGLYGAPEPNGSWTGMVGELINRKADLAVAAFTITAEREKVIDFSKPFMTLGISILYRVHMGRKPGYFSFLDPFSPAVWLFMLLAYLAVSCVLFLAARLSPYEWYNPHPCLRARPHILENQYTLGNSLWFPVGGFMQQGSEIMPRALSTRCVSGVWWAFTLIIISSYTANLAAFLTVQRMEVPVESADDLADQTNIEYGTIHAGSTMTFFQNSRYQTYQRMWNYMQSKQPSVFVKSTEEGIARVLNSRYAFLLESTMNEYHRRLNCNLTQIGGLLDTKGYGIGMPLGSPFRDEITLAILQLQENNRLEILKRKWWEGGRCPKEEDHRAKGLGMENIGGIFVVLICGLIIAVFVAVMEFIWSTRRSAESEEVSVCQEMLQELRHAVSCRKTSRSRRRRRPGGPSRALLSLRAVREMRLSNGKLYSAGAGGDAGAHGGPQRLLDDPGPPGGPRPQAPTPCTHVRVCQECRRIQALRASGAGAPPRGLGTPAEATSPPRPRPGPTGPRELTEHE

[9] = target: T4, Ionotropic glutamate receptor kainate 2/5 (Homo sapiens) (UniProt Q16478+Q13002); experiment: Antagonist activity at GluK2/K5 (unknown origin) expressed in HEK293T cells preincubated with compound followed by L-Glu stimulation by electrophysiology; type: cell-based
[10] = target: Glutamate receptor 4 (Rattus norvegicus) (UniProt P19493); experiment: Displacement of [3H]-AMPA from AMPA in rat cortical synaptosomes assessed as remaining activity at 10 uM incubated for 30 mins by TopCount microplate scintillation counting method relative to control; type: subcellular; conditions: Cortex, Synaptosome
Sequence of Glutamate receptor 4 (Rattus norvegicus) (P19493 whole entry): as the sequence (P19493 whole entry) above

[11] = target: Glutamate NMDA receptor (Rattus norvegicus) (UniProt P35439+Q00959+Q00960+Q00961+Q62645+Q8VHN2+Q9R1M7); experiment: Displacement of [3H]CGP39653 from NMDA receptor in rat cortical synaptosomes assessed as remaining activity at 10 uM incubated for 60 mins by Topcount microplate scintillation counting method relative to control; type: subcellular; conditions: Cortex, Synaptosome
Neuron [12] = experiment: Agonist activity at GluK2/K5 in mouse hippocampal neurons assessed as change in holding current at 10 uM by electrophysiology; type: cell-based; conditions: filed as agonist
[13] = Displacement of [3H]-KA from KA in rat cortical synaptosomes incubated for 60 mins by TopCount microplate scintillation counting method; type: subcellular, Cortex, Synaptosome
[14] = target: Glutamate receptor ionotropic, kainate 3 (Rattus norvegicus, UniProt P42264); experiment: Displacement of [3H]-KA from rat GluK3
Sequence of Glutamate receptor ionotropic, kainate 3 (P42264 whole entry): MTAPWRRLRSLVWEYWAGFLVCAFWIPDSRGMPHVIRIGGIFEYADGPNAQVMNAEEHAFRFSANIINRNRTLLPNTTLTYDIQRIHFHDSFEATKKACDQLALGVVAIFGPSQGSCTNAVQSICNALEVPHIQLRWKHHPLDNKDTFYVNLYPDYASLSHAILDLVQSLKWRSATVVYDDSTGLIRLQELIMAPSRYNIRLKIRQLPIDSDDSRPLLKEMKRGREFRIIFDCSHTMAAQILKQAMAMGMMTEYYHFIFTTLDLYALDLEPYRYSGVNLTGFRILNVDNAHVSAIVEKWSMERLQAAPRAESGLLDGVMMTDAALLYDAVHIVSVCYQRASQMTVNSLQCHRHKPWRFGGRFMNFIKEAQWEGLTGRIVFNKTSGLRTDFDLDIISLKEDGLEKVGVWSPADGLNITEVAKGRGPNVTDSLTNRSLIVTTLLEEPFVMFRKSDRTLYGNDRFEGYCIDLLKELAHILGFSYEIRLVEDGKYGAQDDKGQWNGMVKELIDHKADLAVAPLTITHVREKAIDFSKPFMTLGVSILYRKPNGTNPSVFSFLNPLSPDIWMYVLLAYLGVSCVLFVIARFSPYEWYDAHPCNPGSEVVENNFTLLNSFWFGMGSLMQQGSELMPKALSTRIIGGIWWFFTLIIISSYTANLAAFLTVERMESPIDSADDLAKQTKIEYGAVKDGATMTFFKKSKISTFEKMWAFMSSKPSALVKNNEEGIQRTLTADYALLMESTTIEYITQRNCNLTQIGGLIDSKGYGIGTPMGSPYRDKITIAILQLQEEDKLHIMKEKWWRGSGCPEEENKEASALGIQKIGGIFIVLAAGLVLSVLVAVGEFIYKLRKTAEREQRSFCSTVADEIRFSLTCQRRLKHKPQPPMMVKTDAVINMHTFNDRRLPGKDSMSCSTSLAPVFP

Neuron [15] = experiment: Agonist activity at GluK2/K5 in mouse hippocampal neurons assessed as change in holding current at 100 uM by electrophysiology; type: cell-based; conditions: filed as agonist
[16] = target: T4, Ionotropic glutamate receptor kainate 2/5 (Homo sapiens); experiment: Agonist activity at GluK2/K5 (unknown origin) expressed in HEK293T cells at 10 uM by electrophysiology; type: cell-based
[17] = target: Glutamate receptor ionotropic, kainate 2 (Rattus norvegicus, UniProt P42260); experiment: Displacement of [3H]-KA from rat GluK2
Sequence of Glutamate receptor ionotropic, kainate 2 (Rattus norvegicus, UniProt P42260) (P42260 whole entry): as the sequence (Q13002 whole entry) above, with F5S, I7V, P11L, R14S, T16S, V17I, L19V, A494V counted along it

[18] = target: Glutamate receptor ionotropic, kainate 1 (Rattus norvegicus) (UniProt P22756); experiment: Displacement of [3H]-NF608 from rat GluK1 assessed as percent of radioligand binding at 10 uM relative to control
Sequence of Glutamate receptor ionotropic, kainate 1 (Rattus norvegicus) (P22756 whole entry): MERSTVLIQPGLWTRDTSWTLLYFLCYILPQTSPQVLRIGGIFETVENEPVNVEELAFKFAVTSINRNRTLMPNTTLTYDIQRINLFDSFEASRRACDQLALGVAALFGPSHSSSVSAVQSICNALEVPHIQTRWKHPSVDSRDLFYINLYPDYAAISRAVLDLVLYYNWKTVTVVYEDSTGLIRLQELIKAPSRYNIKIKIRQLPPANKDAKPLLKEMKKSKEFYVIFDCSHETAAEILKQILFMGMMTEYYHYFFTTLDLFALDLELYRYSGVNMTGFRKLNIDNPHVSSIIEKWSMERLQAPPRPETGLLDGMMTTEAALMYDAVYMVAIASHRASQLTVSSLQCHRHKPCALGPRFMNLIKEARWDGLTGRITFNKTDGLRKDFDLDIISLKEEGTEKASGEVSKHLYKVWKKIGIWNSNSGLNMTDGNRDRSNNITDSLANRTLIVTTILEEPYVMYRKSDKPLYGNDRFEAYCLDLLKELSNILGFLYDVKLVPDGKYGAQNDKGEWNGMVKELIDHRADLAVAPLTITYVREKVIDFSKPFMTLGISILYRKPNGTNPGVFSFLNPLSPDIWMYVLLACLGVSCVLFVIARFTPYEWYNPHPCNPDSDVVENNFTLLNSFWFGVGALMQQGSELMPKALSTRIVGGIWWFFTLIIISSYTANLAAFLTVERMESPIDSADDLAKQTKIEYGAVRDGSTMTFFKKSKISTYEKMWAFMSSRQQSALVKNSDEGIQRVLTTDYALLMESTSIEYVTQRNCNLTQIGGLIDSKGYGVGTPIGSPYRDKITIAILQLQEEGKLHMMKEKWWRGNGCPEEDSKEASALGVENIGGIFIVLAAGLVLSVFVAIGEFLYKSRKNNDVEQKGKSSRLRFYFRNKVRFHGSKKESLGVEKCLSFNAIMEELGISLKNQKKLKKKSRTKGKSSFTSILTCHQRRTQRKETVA

| SMILES | EC50 (Hippocampus) [nM] | Ki [1] [nM] | IC50 (Glutamate receptor 4 [2]) [nM] | IC50 (Glutamate receptor 4 [3]) [nM] | Ki [4] [nM] | IC50 [5] [nM] | IC50 [6] [nM] | Ki [7] [nM] | Ki [8] [nM] | Activity [9] | Activity [10] [%] | Activity [11] [%] | Activity (Neuron [12]) [pA] | IC50 [13] [nM] | Ki [14] [nM] | Activity (Neuron [15]) [pA] | Activity [16] | Ki [17] [nM] | Activity [18] [%] |
| --- | --- | --- | --- | --- | --- | --- | --- | --- | --- | --- | --- | --- | --- | --- | --- | --- | --- | --- | --- |
| C/C(=C/C/C=C(\C)C(=O)O)[C@H]1CN[C@H](C(=O)O)[C@H]1CC(=O)O | 887 | 130 | – | – | – | – | – | – | – | – | – | – | – | – | – | – | – | – | – |
| C/C(=C/C=C/[C@@H](C)C(=O)O)[C@H]1CN[C@H](C(=O)O)[C@H]1CC(=O)O [DOMOIC ACID] | 228 | – | 9000 | 470 | 1.11 | 15 | 4 | 6.04 | – | – | – | – | – | – | – | – | – | – | – |
| O=C(O)C[C@@H]1[C@@H](C(=O)O)NC[C@@H]1n1nncc1-c1ccc2cc(O)ccc2c1 | – | – | – | – | – | – | – | – | 432 | inactive | 90 | 99 | 56 | 4400 | 17900 | 148 | inactive | 70000 | 90 |
